Source: patent US9155301B2, “Antimicrobial agent comprising a cysteine component covalently bound to a substrate in particular by binding through an S-S bridge via a spacer molecule” (priority 2005, dated 2015)

Test system: Staphylococcus aureus (B5381, a clinical isolate)
Assay: Inhibition of bacterial growth in culture incubated with modified surface
Assay type: cell-based
Details: Example 11; dissolved in culture at 50 μg/ml and 5 μg/ml; initial culture exceeding 4 million cfu/ml
Protocol: The following analysis was performed with three (3) different strains of bacteria, but the applications are not limited to these: A clinical isolate (from a patient with sepsis) of Gram positive bacterium Staphylococcus aureus, (a clinical isolate B5381), the Gram positive bacterium Bacillus megaterium (strain Bm11), the Gram negative bacterium Escherichia coli (strain D21). This selection of bacteria comprises both Gram positive and Gram negative bacteria including bacteria that are of significant problems clinically.
[…] LB medium (Luria Bertani broth) has been inoculated with specific bacterial strain, but not limited to this medium. The strain selected has been plated on an agar plate of selected medium the day before, and permitted to grow over night at 37° C. Several colonies were scraped from the plate and used to inoculate the medium which subsequently was allowed to grow up to an optical density of 0.4. […] The number of bacteria was determined by plating serial dilutions and counting colonies in the appropriate dilutions. […]
Subsequent to incubation (in the presently described case: 2.5 h), the disc was removed from each tube using a sterile pair of tweezers. The culture in which the disc had been incubated was in parallel transferred to a separate sterile eppendorf tube, and its titer was determined as described. […]

SMILES: N[C@@H](CS)C(=O)O [dissolved L-cysteine, L-cysteine]
- inhibition of growth in culture with dissolved substance: No inhibition
